Experimental data from the supplement of paper PMC10307832.

Experiments:
Assay in all cases: relative viability (nuclei count vs DMSO), 5 days (fraction); higher = more cells survive
[1] = compound: C1=CC=C(C(=C1)C2=CC=C(C=C2)C3=CSC4=C3C(=C(C(=O)N4)C#N)O)O + CC1(C)CCC(c2ccc(Cl)cc2)=C(CN2CCN(c3ccc(C(=O)NS(=O)(=O)c4ccc(N[C@H](CCN5CCOCC5)CSc5ccccc5)c(S(=O)(=O)C(F)(F)F)c4)cc3)CC2)C1 [Navitoclax] (partner 0.5 µM)
How it was run: (§1)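 After 5 days of treatment, lung cancer cells in 1536-well plates were fixed and stained in a single step (final 0.05% Triton X-100, 1% formaldehyde, 1 ug/ml Hoechst) and their nuclei counted on 4× images. Treatment had been applied by pin tool the day after seeding as one drug alone or as a fixed anchor-drug dose with five library-drug doses (not always all listed) in √10 steps. Relative viability is the nuclei count of treated wells divided by that of vehicle wells, and values are medians of duplicate plates.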

[2] = compound: O=C(CCCCCCNC(=O)c1cnc(N(c2ccccc2)c2ccccc2)nc1)NO [Ricolinostat] + CC1(C)CCC(c2ccc(Cl)cc2)=C(CN2CCN(c3ccc(C(=O)NS(=O)(=O)c4ccc(N[C@H](CCN5CCOCC5)CSc5ccccc5)c(S(=O)(=O)C(F)(F)F)c4)cc3)CC2)C1 [Navitoclax] (partner 0.5 µM)
How it was run: as §1

[3] = compound: O=C(CCCCCCNC(=O)c1cnc(N(c2ccccc2)c2ccccc2)nc1)NO [Ricolinostat] + Cc1cc(Nc2cc(N3CCN(C)CC3)nc(Sc3ccc(NC(=O)C4CC4)cc3)n2)n[nH]1 [Tozasertib] (partner 0.1 µM)
How it was run: as §1

Ricolinostat + Alpelisib = compound: O=C(CCCCCCNC(=O)c1cnc(N(c2ccccc2)c2ccccc2)nc1)NO [Ricolinostat] + Cc1nc(NC(=O)N2CCC[C@H]2C(N)=O)sc1-c1ccnc(C(C)(C)C(F)(F)F)c1 [Alpelisib] (partner 2 µM)
How it was run: as §1

Row | Cell Line | relative viability ([1]; first compound 0.08 µM) | relative viability ([1]; first compound 0.253 µM) | relative viability ([1]; first compound 0.8 µM) | relative viability ([1]; first compound 2.53 µM) | relative viability ([1]; first compound 8 µM) | relative viability ([2]; first compound 0.08 µM) | relative viability ([2]; first compound 0.253 µM) | relative viability ([2]; first compound 0.8 µM) | relative viability ([2]; first compound 2.53 µM) | relative viability ([3]; first compound 0.08 µM) | relative viability ([3]; first compound 0.253 µM) | relative viability ([3]; first compound 0.8 µM) | relative viability ([3]; first compound 2.53 µM) | relative viability (Ricolinostat + Alpelisib; first compound 0.08 µM) | relative viability (Ricolinostat + Alpelisib; first compound 0.253 µM) | relative viability (Ricolinostat + Alpelisib; first compound 0.8 µM) | relative viability (Ricolinostat + Alpelisib; first compound 2.53 µM)
1 | NCI-H647 | 0.877 | 1.16 | 1.24 | 1.21 | 0.741 | 0.806 | 1.12 | 1.09 | 1.09 | 0.315 | 0.195 | 0.27 | 0.206 | 1.16 | 1.09 | 1.15 | 0.937
2 | NCI-H727 | 0.426 | 0.478 | 0.48 | 0.409 | 0.479 | 0.356 | 0.55 | 0.397 | 0.405 | 0.448 | 0.704 | 0.734 | 0.563 | 0.546 | 0.64 | 0.759 | 0.502
3 | NCI-H838 | 1.16 | 1.07 | 1.22 | 1.12 | 0.979 | 0.97 | 1.13 | 1.19 | 0.967 | 0.255 | 0.275 | 0.238 | 0.212 | 0.903 | 1.08 | 1.04 | 1.08
4 | NCI-H1355 | 1.1 | 1.02 | 0.935 | 0.957 | 0.777 | – | 0.916 | 0.887 | 0.747 | 0.6 | 0.558 | 0.483 | 0.477 | – | 0.847 | 0.795 | 0.715
5 | NCI-H1395 | – | 1.21 | 1.15 | 1.05 | 1.12 | – | 1.13 | 1.32 | 1.27 | – | 0.835 | 0.741 | 0.671 | – | 1.12 | 1.13 | 1.26
6 | NCI-H1437 | 1.06 | 1.16 | 1.18 | 1.13 | 0.881 | 1 | 1.07 | 1.02 | 0.831 | 0.341 | 0.4 | 0.367 | 0.315 | 0.888 | 1.03 | 0.907 | 0.722
7 | NCI-H1651 | 1.07 | 0.941 | 1.05 | 1.1 | 0.642 | 0.913 | 0.993 | 1.02 | 0.854 | 0.658 | 0.744 | 0.633 | 0.436 | 0.885 | 0.997 | 0.917 | 0.884
8 | NCI-H1666 | 0.946 | 1.03 | 0.876 | 0.944 | 0.879 | 0.909 | 1.12 | 0.816 | 0.471 | 0.544 | 0.591 | 0.489 | 0.358 | 0.938 | 0.895 | 0.997 | 0.463
9 | NCI-H1734 | 0.793 | 0.979 | 0.886 | 0.972 | 0.492 | 0.645 | 0.826 | 0.924 | 0.78 | 0.241 | 0.29 | 0.231 | 0.292 | 0.469 | 0.684 | 0.645 | 0.721
10 | NCI-H1755 | 1.03 | 1.13 | 0.98 | 1.08 | 0.78 | 0.864 | – | 0.981 | 0.912 | 0.581 | 0.565 | 0.525 | 0.53 | 0.771 | – | 0.92 | 0.902
11 | NCI-H1793 | 0.406 | 0.753 | 0.41 | 0.443 | 0.359 | – | 0.547 | 0.499 | 0.853 | – | 0.256 | 0.27 | 0.244 | – | 0.633 | 0.698 | 0.755
12 | NCI-H1915 | 0.811 | 0.769 | 0.83 | 0.826 | 0.771 | 0.797 | 0.746 | 0.778 | 0.712 | 0.438 | 0.455 | 0.385 | 0.377 | 1.01 | 1.06 | 1.01 | 0.962
13 | NCI-H1944 | 1.05 | 1.03 | 1.02 | 1.1 | 1.08 | 0.993 | 0.972 | 1.04 | 0.901 | 0.245 | 0.246 | 0.221 | 0.23 | 0.649 | 0.783 | 0.74 | 0.58
14 | NCI-H1975 | 0.958 | 1.25 | 1.15 | 1.22 | 0.731 | 1.07 | 1.1 | – | 0.877 | 0.83 | 0.708 | 0.604 | 0.59 | 0.582 | 0.556 | – | 0.492
15 | NCI-H1993 | 0.951 | 0.925 | 1.05 | 0.781 | 0.879 | 0.798 | 1.11 | 1.01 | 1.04 | – | 0.644 | 0.561 | 0.536 | 0.619 | 0.76 | 0.711 | 0.73
16 | NCI-H2009 | 1.06 | 1.08 | 1.21 | 1.17 | 1.09 | 1.14 | 1.11 | 1.09 | 1.07 | 0.745 | 0.686 | 0.68 | 0.607 | 1.13 | 1.11 | 1.12 | 0.923

Row | Cell Line | relative viability ([1]; first compound 0.08 µM) | relative viability ([1]; first compound 0.253 µM) | relative viability ([1]; first compound 0.8 µM) | relative viability ([1]; first compound 2.53 µM) | relative viability ([1]; first compound 8 µM) | relative viability ([2]; first compound 0.08 µM) | relative viability ([2]; first compound 0.253 µM) | relative viability ([2]; first compound 0.8 µM) | relative viability ([2]; first compound 2.53 µM) | relative viability ([3]; first compound 0.08 µM) | relative viability ([3]; first compound 0.253 µM) | relative viability ([3]; first compound 0.8 µM) | relative viability ([3]; first compound 2.53 µM) | relative viability (Ricolinostat + Alpelisib; first compound 0.08 µM) | relative viability (Ricolinostat + Alpelisib; first compound 0.253 µM) | relative viability (Ricolinostat + Alpelisib; first compound 0.8 µM) | relative viability (Ricolinostat + Alpelisib; first compound 2.53 µM)
17 | NCI-H2023 | 0.891 | 0.89 | 0.953 | 1.03 | 1.16 | 0.849 | 1.01 | 0.995 | 0.906 | – | 0.373 | 0.244 | 0.188 | 0.503 | 0.581 | 0.614 | 0.499
18 | NCI-H2085 | 1.12 | 1.31 | 1.06 | 1.25 | 1.01 | – | 1.14 | 1 | 0.947 | 0.688 | 0.731 | 0.613 | 0.523 | – | 1.04 | 0.861 | 0.915
19 | NCI-H2087 | 1.02 | 1.05 | 1.1 | 1.15 | 0.994 | 0.96 | 1.04 | 1.02 | 1.04 | – | 0.253 | 0.164 | 0.168 | 1.14 | 1.21 | 0.949 | 0.999
20 | NCI-H2126 | 0.866 | 0.924 | 0.798 | 0.884 | 0.951 | 0.666 | 0.807 | 0.836 | 0.679 | – | 0.823 | 0.739 | 0.495 | 0.578 | 0.707 | 0.716 | 0.628
21 | NCI-H2170 | 0.616 | 0.683 | 0.601 | 0.561 | 0.465 | 0.607 | 0.495 | 0.633 | 0.662 | 0.758 | 0.61 | 0.622 | 0.723 | 0.687 | 0.764 | 0.862 | 0.934
22 | NCI-H2228 | 1 | 1.12 | 0.828 | 1.12 | 0.848 | 0.951 | 0.987 | 0.8 | 0.693 | 0.37 | 0.235 | 0.237 | 0.141 | 0.555 | 0.984 | 0.722 | 0.791
23 | NCI-H2347 | 0.642 | 0.781 | 0.776 | 0.79 | 0.647 | 0.623 | 0.739 | 0.73 | 0.671 | 0.419 | 0.47 | 0.513 | 0.425 | 0.889 | 1.01 | 0.987 | 0.963
24 | NCI-H2405 | 0.924 | 1.04 | 0.887 | 0.776 | 0.767 | 0.577 | 0.935 | 0.975 | 0.77 | 0.693 | 0.752 | 0.677 | 0.731 | 0.524 | 0.805 | 0.889 | 1.08
25 | NCI-H3122 | 1.01 | 1.11 | 1 | 1.01 | 1.07 | 0.918 | 0.984 | 1.07 | 1.14 | – | 0.361 | 0.382 | 0.295 | 0.514 | 0.942 | 0.785 | 0.964
26 | PC-3 [JPC-3] | 0.913 | 0.816 | 0.849 | 0.765 | 0.808 | 0.778 | 0.77 | 0.739 | 0.574 | – | 0.84 | 0.851 | 0.771 | 0.941 | 0.996 | 0.948 | 0.909
27 | PC-14 | 0.951 | 0.992 | 1.15 | 1.1 | 0.798 | 0.968 | 0.947 | 1.05 | 0.962 | 0.61 | 0.553 | 0.527 | 0.418 | 0.821 | 0.903 | 0.917 | 0.66
28 | RERF-LC-KJ | 0.777 | 0.902 | 0.976 | 0.715 | 0.811 | 0.831 | 0.993 | 0.841 | 0.787 | 0.531 | 0.406 | 0.324 | 0.265 | 0.668 | 0.972 | 0.754 | 0.766
29 | SK-LU-1 | 0.891 | 0.799 | 0.946 | 0.898 | 0.742 | 0.863 | 0.816 | 0.642 | 0.502 | 0.321 | 0.273 | 0.285 | 0.194 | 0.947 | 0.914 | 0.84 | 0.708
30 | SK-MES-1 | 1.34 | 1.34 | 1.3 | 1.14 | 1 | 1.07 | 1.22 | 1.21 | 1.23 | 0.833 | 0.795 | 0.877 | 0.628 | 0.541 | 0.761 | 0.805 | 0.591
31 | SW 1573 | 0.965 | 0.902 | 0.901 | 0.976 | 0.784 | 0.807 | 0.993 | 0.901 | 1.01 | 0.277 | 0.193 | 0.165 | 0.242 | 0.506 | 0.862 | 0.751 | 0.832
32 | UMC-11 | 0.321 | 0.301 | 0.321 | 0.314 | 0.318 | 0.31 | 0.343 | 0.267 | 0.158 | 0.221 | 0.192 | 0.159 | 0.165 | 0.882 | 1.09 | 0.961 | 0.856
